Source: patent publication US9439927B2, “Treatment of inflammatory bowel disease” (Glock Health GmbH, priority 2013, dated 2016)

Experiments:
[1] = system: IBD induced by administration of dextran sulfate sodium (DSS); test: Blood in stool, DSS-induced IBD in mice; assay type: in vivo; design: key to Blood in stool: + Blood in stool; − No blood in stool; details: for Blood in stool: DSS in drinking water for five days, test substance orally from the sixth day
Experimental: (§1) For five groups of 12 mice each (only 3 mice in the control), the experimental routine procedure frequently used in connection with the treatment of IBD was carried out, in which IBD is induced by administration of dextran sulfate sodium (DSS). This involved administering DSS in drinking water for five days (but not in the control group), and after that the particular test substance was administered orally. On the tenth day, the mice were sacrificed using CO2 and the colon was removed for examination. The individual groups were as follows:
Group 2: received only DSS.
Group 3: (GHC1) received DSS as described above and, from the sixth day, a clinoptilolite freed of heavy metals which was ground to a mean particle size of 3.5 μm and thus not in accordance with the invention.
Group 4: (GHC2) received, from the sixth day, the substance according to the invention.
Group 5: (5ASA) received, from the sixth day, sulfasalazine, a derivative of mesalazine, also termed 5-ASA.

[2] = system: TNF-α; test: TNF-α mRNA by RT-PCR in intestinal tissue homogenates; assay type: in vivo, mice; details: FIG. 10
Experimental: as §1
To objectify and quantify the effects determined from the histological examinations, further analyses of biochemical inflammation markers (TNF-α/IL-6/IL-1β mRNA by means of RT-PCR, MPO activity) from tissue homogenates of the relevant intestinal segments were carried out.
Two further proinflammatory cytokines were examined; the results are shown in FIG. 9 (IL-6) and 10 (TNF-α). Said figures show: • 2expΔΔct=the rise in expression for a particular gene (1=1×, 2=2×, etc.); • Control=control group; • DSS1.5=group 2; • DSS1.5+GHC1=group 3; • DSS1.5+GHC2=(inventive) group 4; • DSS1.5+5ASA=group 5; • **=a very significant difference in relation to the control group (control); • #=a significant difference in relation to the DDS1.5 group (group 2); • ##=a very significant difference in relation to the DDS1.5 group (group 2).

[3] = system: intestinal epithelium; test: Histological analysis (hematoxylin and eosin staining) and colon damage score; assay type: in vivo, mice
Experimental: as §1, with “examination.” for “examination. The individual groups were as follows:”

[4] = system: IBD induced by administration of dextran sulfate sodium (DSS); test: Stool consistency (stool score), DSS-induced IBD in mice; assay type: in vivo; details: tenth day, FIG. 2
Experimental: as §1, with “examination.” for “examination. The individual groups were as follows:”

O=C(O)c1cc(/N=N/c2ccc(S(=O)(=O)Nc3ccccn3)cc2)ccc1O [5ASA, sulfasalazine]
Blood in stool ([1]; day 0): −
Blood in stool ([1]; day 2): −
Blood in stool ([1]; day 4): −
Blood in stool ([1]; day 6): +
Blood in stool ([1]; day 8): −
Blood in stool ([1]; day 10): −
Days on which blood in stool was exhibited ([1]; text summary of Table I): only on the sixth day
TNF-α expression (2expΔΔct) [2]: does not show a positive effect
Healing of the intestinal epithelium (histology) ([3]; hematoxylin and eosin staining, day 10, FIG. 5): distinctly improved healing of the intestinal epithelium
Colon damage score ([3]; histo(patho)logical examinations, FIG. 6): good convergence
Stool consistency, return to normal range [4]: completely within the normal range
